Data from patent publication US20070264250A1, “Composition for Skin-Whitening and Wrinkle-Care” (priority 2004, published 2007).

Assay type: physicochemical
Conditions: 1 mM, pH 7
Method: Stabilities of 2-o-α-glucopyranosyl-L-ascorbic acid and ascorbic acid in an aqueous solution were compared.
(1) 2-o-α-glucopyranosyl-L-ascorbic acid, (2) ascorbic acid, and (3) 2-o-α-glucopyranosyl-L-ascorbic acid and 10 units of α-glucosidase were added to 50 mM potassium phosphate buffer solution (pH 7.0) so that a concentration of each component was 1 mM, to produce test groups. The test groups were stored at 37° C., sampled every day for 5 days, and quantitatively analyzed.
The quantitative analysis (HPLC analysis) for test materials was conducted under conditions described in the following Table 1. An amount of remaining 2-o-α-glucopyranosyl-L-ascorbic acid or ascorbic acid which was not degraded was reduced by an initial concentration, and stability was evaluated using the ratio.
However, almost all vitamin C was degraded within 2 days. […] As well, it was confirmed that converted vitamin C was immediately degraded.

time within which almost all was degraded: ≤ 2 days
SMILES: O=C1O[C@H]([C@@H](O)CO)C(O)=C1O [vitamin C, ascorbic acid]
